# What was measured:
# Assay in all cases: selective drug sensitivity score (sDSS, relative to normal bone marrow) (sDSS (score)); higher = more potent and effective on the cell line relative to normal bone marrow cells
# Details in all cases: 72 h
# P30-OHKUBO = tested on: P30-OHKUBO
# KASUMI-10 = tested on: KASUMI-10
# MHH-CALL-3 = tested on: MHH-CALL-3
# COG-LL-394h = tested on: COG-LL-394h
# 380 = tested on: 380
# SEM cells = tested on: SEM cells
# MHH-CALL-2 = tested on: MHH-CALL-2
# CCRF-CEM = tested on: CCRF-CEM
# COG-LL-319h = tested on: COG-LL-319h
# ALL-SIL = tested on: ALL-SIL
# TMD5 = tested on: TMD5
# PEER = tested on: PEER
# MOLT-16 = tested on: MOLT-16
# COG-LL-332h = tested on: COG-LL-332h
# REH = tested on: REH
# MN-60 = tested on: MN-60
# RCH-ACV = tested on: RCH-ACV
# TANOUE = tested on: TANOUE
# MHH-CALL-4 = tested on: MHH-CALL-4
# MOLT-14 = tested on: MOLT-14
# 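Further: ALL cell lines in 384-well plates, five doses spanning 10,000-fold, each plate scaled between vehicle and 100 µmol/L benzalkonium chloride controls, sDSS an adapted area-under-curve metric.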
Compound,selective drug sensitivity score (P30-OHKUBO),selective drug sensitivity score (KASUMI-10),selective drug sensitivity score (MHH-CALL-3),selective drug sensitivity score (COG-LL-394h),selective drug sensitivity score 380,selective drug sensitivity score (SEM cells),selective drug sensitivity score (MHH-CALL-2),selective drug sensitivity score (CCRF-CEM),selective drug sensitivity score (COG-LL-319h),selective drug sensitivity score (ALL-SIL),selective drug sensitivity score (TMD5),selective drug sensitivity score (PEER),selective drug sensitivity score (MOLT-16),selective drug sensitivity score (COG-LL-332h),selective drug sensitivity score (REH),selective drug sensitivity score (MN-60),selective drug sensitivity score (RCH-ACV),selective drug sensitivity score (TANOUE),selective drug sensitivity score (MHH-CALL-4),selective drug sensitivity score (MOLT-14)
COC12C(COC(N)=O)C3=C(C(=O)C(C)=C(N)C3=O)N1CC1NC12 (stereo in doubt) [Mitomycin_C] (top concentration 10000 nM),2.24,-2.86,-2.86,-2.86,-1.36,3.84,1.54,-2.86,9.74,-2.86,-1.96,-2.86,-2.86,-2.86,3.74,-2.86,4.84,-2.86,-1.66,-2.86
Cc1c(-c2c(-c3ccc(F)o3)sc3ncnc(O[C@H](Cc4ccccc4OCc4ccnn4CC(F)(F)F)C(=O)O)c23)ccc(OCCN2CCN(C)CC2)c1Cl (top concentration 1000 nM),1.26,-2.64,1.56,-4.54,0.86,-6.44,-6.04,-0.24,15.8,-1.04,-7.74,-0.14,7.46,-5.84,-6.84,-7.74,-6.54,-7.74,-4.64,3.06
Cc1ncc(Cl)cc1NCc1ccc(C(=O)N[C@@H](CC2CCCC2)C(=O)NC2CC2)s1 (top concentration 5000 nM),-0.94,2.46,8.26,1.36,9.86,-0.94,-0.24,-0.94,14.3,4.16,-0.94,-0.24,3.96,1.86,-0.84,-0.94,1.46,-0.94,-0.94,2.96
CCn1c(-c2nonc2N)nc2c(C#CC(C)(C)O)ncc(OC[C@H]3CCCNC3)c21 (top concentration 10000 nM),3.88,0.88,3.38,2.18,8.58,5.28,3.48,11.9,7.38,6.68,-1.12,1.68,11.6,9.28,12.9,0.08,17.1,-1.12,2.98,1.68
CN(c1ncccc1CNc1nc(Nc2ccc3c(c2)CC(=O)N3)ncc1C(F)(F)F)S(C)(=O)=O (top concentration 10000 nM),2.72,6.62,4.82,-0.08,4.02,7.22,-1.28,-0.28,4.52,4.92,-3.28,7.22,2.82,2.02,5.12,-1.08,3.62,-3.98,-0.78,-0.08
CNc1ncc2cc(-c3cc(NC(=O)NCCC(C)(C)C)c(F)cc3C)c(C)nc2n1 (top concentration 10000 nM),5.86,3.96,8.66,5.76,7.76,5.66,9.76,5.56,12.1,20.7,7.86,15,5.06,9.06,-2.24,-0.94,12.7,-2.84,8.96,12.5
C[C@@]1(C(=O)Nc2ccc(F)nc2)CCCN1c1nc(Nc2cc(C3CC3)n[nH]2)c2cccn2n1 (top concentration 10000 nM),11.2,4.68,3.28,5.98,18.1,8.98,11.7,11.8,8.78,10.5,-0.12,11.2,12.5,10.5,9.08,-4.62,6.08,-6.52,4.58,12.7
Cc1nc(Nc2n[nH]c3c2CN(C(=O)N[C@H](CN(C)C)c2ccccc2)C3(C)C)c2sccc2n1 (top concentration 10000 nM),12,1.68,0.18,-7.92,22.2,2.28,0.38,6.98,4.28,-5.82,-7.92,-3.12,22.7,7.58,-3.72,5.08,22.7,-11.1,0.88,7.18
Cn1cc(-c2[nH]c3cc(NC(=O)[C@H](N)C4CCCCC4)cc4c3c2C=NNC4=O)cn1 (top concentration 10000 nM),9.08,5.88,0.38,-0.72,8.68,7.28,3.48,6.08,11.5,9.18,-0.12,5.68,9.68,4.98,10.2,-1.82,11.5,-5.22,0.88,2.68
Cn1cc(-c2ccc(F)c(C(F)(F)F)c2)nc1C1CCN(c2ncnc3[nH]ncc23)CC1 (top concentration 10000 nM),-0.14,-0.14,5.16,-0.14,12.3,-0.14,0.26,0.86,3.76,0.06,-0.14,1.66,0.36,1.56,-0.14,-0.14,8.26,0.96,1.86,-0.14
O=C(Nc1ccc2[nH]nc(-c3ccncc3)c2c1)[C@@H]1CCN(CC(=O)N2CCN(c3ccc(-c4ncccn4)cc3)CC2)C1 (top concentration 10000 nM),-3.74,-0.74,7.16,-0.14,1.66,-2.64,1.26,-0.54,2.16,0.16,-0.34,2.16,1.06,-0.54,4.86,-3.64,-0.44,-4.64,3.96,8.56
CC(C)(C)c1cc(NC(=O)Nc2ccc(Oc3ccnc4[nH]c(=O)cnc34)cc2F)n(-c2ccccc2)n1 (top concentration 25000 nM),-0.08,5.62,-3.58,0.82,-4.68,11.4,-1.48,-2.18,-1.08,16.1,2.32,5.32,-1.08,2.02,-0.78,0.42,3.82,-5.68,0.42,-4.58
Nc1ncnc2c1nc(N)n2[C@@H]1O[C@H](CO)[C@@H](O)[C@H]1O [8-amino-adenosine] (top concentration 50000 nM),6.18,3.28,5.38,6.58,9.38,5.08,3.28,6.48,6.78,2.68,2.68,5.98,5.68,3.18,2.88,1.58,6.68,0.98,2.18,5.18
CC(C)[C@@H](CS(=O)(=O)C(C)C)N1C(=O)[C@@](C)(CC(=O)O)C[C@H](c2cccc(Cl)c2)[C@H]1c1ccc(Cl)cc1 [AMG-232] (top concentration 10000 nM),8.96,10.1,12.6,8.76,13,-8.34,11.7,-7.34,11.4,-8.14,6.76,-6.94,8.06,9.26,8.36,3.16,12.1,-10.5,10.9,10.1
CC(C)[C@H](C(=O)Nc1ccc(C(=O)NO)cc1)c1ccccc1 [AR-42] (top concentration 10000 nM),5.18,6.88,14.3,2.08,10.1,9.08,11,6.68,10.8,10.2,5.28,9.18,8.38,4.68,5.38,1.48,13.9,-4.22,8.08,8.48
O=C(Nc1c[nH]nc1-c1nc2ccc(CN3CCOCC3)cc2[nH]1)NC1CC1 [AT9283] (top concentration 1000 nM),16,8.42,10.4,1.02,11.3,14.7,3.42,12.5,11.3,15.6,7.32,15.9,8.22,11.7,11.6,1.02,6.02,-4.38,4.92,13.8
CCN(CCO)CCCOc1ccc2c(Nc3cc(CC(=O)Nc4cccc(F)c4)[nH]n3)ncnc2c1 [AZD1152-HQPA] (top concentration 1000 nM),24.7,16,5.24,3.24,20.8,15.7,6.64,16.9,24.2,23.4,9.14,21.8,27.7,21.6,17.2,-2.46,14,-3.06,2.04,17.8
Cc1[nH]nc(C(F)(F)F)c1Cc1sc2c(c1C(=O)N1C[C@](C)(O)CO1)c(=O)n(C)c(=O)n2C(C)C [AZD3965] (top concentration 1000 nM),1.8,0,0,0,4.2,0,1.4,0.3,0,0,2.6,0,0,0,3.6,0.9,0,2.6,0,0

# From the supplement of paper PMC8967900
